Laboratory results from US20120202840A1, “Use of Flubendazole and Vinca Alkaloids for Treatment of Hematological Diseases” (priority 2009, published 2012).
Where two headings read alike, the source gives them in different places.

Key:
[1] = tested on: Primary AML cell samples; assay: Methylcellulose colony forming assay; type: cell-based, human; details: primary AML samples (n=3), colonies counted 7 days after plating
Method: (C) Primary AML cell samples (n=3) were plated in a methylcellulose colony forming assay with increasing concentrations of flubendazole. Colonies were counted 7 days after plating and normalized to cultures treated with buffer alone. Data represent the mean±SD from 3 independent experiments performed in duplicate.
Primary human acute myeloid leukemia (AML) samples were isolated from the peripheral blood of consenting AML patients, who had at least 80% malignant cells among the mononuclear cells in their peripheral blood and cultured at 37° C. in IMDM, 10% fetal calf serum, 100 units/mL of streptomycin and 100 μg/mL of penicillin. The collection and use of human tissue for this study was approved by the local ethics review board (University Health Network, Toronto, ON, Canada).

[2] = tested on: OCI-AML2 cells; assay: Cell cycle analysis (PI, flow cytometry), OCI-AML2; type: cell-based; details: OCI-AML2, 1.0 μM, 24 h
Method: OCI-AML2 cells (A) or PPC-1 cells (B) were incubated with 1.0 μM flubendazole or buffer control for 24 h. Cells were then stained with PI and the DNA content was measured by flow cytometry. A representative figure is shown.
Cell cycle analysis was performed as described by Mao et al^31. Briefly, OCI-AML2 or PPC-1 cells were harvested, washed with cold PBS and resuspended in PBS and cold absolute ethanol. Cells were then treated with 100 ng/mL of DNase-free RNase A (Invitrogen, Carlsbad, Calif.) at 37° C. for 30 min, washed with cold PBS, resuspended in PBS and incubated with 50 μg/mL of propidium iodine (PI) for 15 min at room temperature in the dark. DNA content was measured by flow cytometry (FACSCalibur, Becton Dickinson, Florida, USA) and analyzed with FlowJo software version 7.0 (TreeStar, Ashland, Oreg.).

[3] = tested on: PPC-1 cells; assay: Mitotic catastrophe (multinucleated cells); type: cell-based; details: 1.0 μM, 24 h
Method: (C) PPC-1 cells were treated as above and stained with anti α-tubulin antibody and DAPI, as described in the materials and methods. Cells were imaged by confocal microscopy and the number of multi-nucleated cells was enumerated. Data represent the mean±SD percent of multinucleated cells from a representative experiment *p<0.0001 (unpaired t test). Insert: a representative multi-nucleated cell.
Mitotic catastrophe was measured by enumerating the number of multinucleated cells similar to the method previously described^26. Briefly, cells (5.0×10^5) were fixed and stained as described below. Fields containing 100 cells per treatment group were selected at random and visualized at 20×. A total of 700 cells were scored per treatment condition. A positive score for mitotic catastrophe was given when two or more distinct nuclear lobes were visualized within a single cell.

[4] = tested on: OCI-AML2 cells; assay: MTS cell growth and viability assay, OCI-AML2; type: cell-based; details: OCI-AML2, 72 h, MTS assay
Method: (A) OCI-AML2 cells were treated for 72 h with increasing concentrations of benzimidazoles. After incubation, cell growth and viability was measured by the MTS assay. Data represent the mean percentage of viable cells ±SD from a representative experiment.
Cell growth and viability was measured using the 3-(4,5-dimethylthiazol-2-yl)-5-(3-carboxymethoxyphenyl)-2-(4-sulfophenyl)-2H-tetrazolium inner salt (MTS) reduction assay (Promega, Madison, Wis.) according to the manufacture's protocol and as previously described^25. Cells were seeded in 96 well plates and treated with drug for 72 h. Optical density (OD) was measured at 490 nm.

[5] = tested on: OCI-AML2 cells
Method: Sub-lethally irradiated SCID mice were injected subcutaneously with OCI-AML2 cells (n=20; 10 per group). After implantation, mice were treated with 50 mg/kg flubendazole (A), 20 mg/kg flubendazole (B), or vehicle control by intraperitoneal injection daily. Tumor volume was measured over time. After 16 days (20 mg/kg dose) or 18 days (50 mg/kg dose), mice were sacrificed and tumors were excised, measured and weighted.
Sub-lethally irradiated SCID mice were injected subcutaneously with OCI-AML2 cells (n=40; 10 per group). […] After 16 (C) or 18 (D) days, mice were sacrificed and tumors were excised, measured and weighted. Data represent the mean±SD tumor weight.
Sub-lethally irradiated SCID mice were injected subcutaneously in the left flank with leukemia OCI-AML2 (2.0×10^6) or myeloma OPM2 (1.0×10^7) cells. Mice were then randomly assigned to receive flubendazole (in 0.9% NaCl and 0.01% tween-80) or vehicle control (0.9% NaCl and 0.01% tween-80) intraperitoneally. […] Tumor volumes (tumor length×width^2×0.5236) were monitored daily using calipers. At the end of the experiment (16-18 days), mice were sacrificed, tumors excised and tumor volume and weight measured. All animal studies were carried out according to the regulations of the Canadian Council on Animal Care and with the approval of the local ethics review board.

[6] = sheep, cited from earlier work
[7] = tested on: A549; assay: MTS assay, A549; type: cell-based; details: Homo sapiens, 3 replicates
Method: Next, whether microtubule inhibition was functionally important for flubendazole's cytotoxicity was determined.
Leukemia (U937, MDAY, CEM, CEM-VBL) and solid tumor cell lines (PPC-1, HeLa) were cultured in RPMI 1640 medium. The epidermoid carcinoma cell lines KB-3-1 and KB-4.0-HTI^23 were grown in Dulbecco's Modified Eagle Medium. The lung carcinoma cell lines A549 and A549.EpoB40 were grown in RPMI with the latter supplemented with 20% fetal calf serum (FCS), and 40 nM epothilone B.^24 Leukemia cell lines OCI-AML2, CEM, and NB4 and all the myeloma cell lines (OPM2, KMS11, JJN3 LP1, H929, L1, KMS12, KSM18 and OCI My5) were maintained in Iscove's Modified Dulbecco's Medium (IMDM). TEX cells were maintained in IMDM, 15% FCS, 1% penicillin-streptomycin, 2 mM L-glutamine, 20 ng/mL SCF, 2 ng/mL IL-3. Unless otherwise noted, all media were supplemented with 10% FCS, 100 units/mL of streptomycin and 100 μg/mL of penicillin (all from Hyclone, Logan, Utah). Cells were incubated in a humidified air atmosphere containing 5% CO2 at 37° C.
Cell growth and viability was measured using the 3-(4,5-dimethylthiazol-2-yl)-5-(3-carboxymethoxyphenyl)-2-(4-sulfophenyl)-2H-tetrazolium inner salt (MTS) reduction assay (Promega, Madison, Wis.) according to the manufacture's protocol and as previously described^25. […] Optical density (OD) was measured at 490 nm.

[8] = OCI-AML2 xenograft, 20 or 50 mg/kg daily intraperitoneally, vs vehicle, p<0.0001
[9] = single dose of 5 mg/kg intravenously

SMILES: COC(=O)Nc1nc2ccc(C(=O)c3ccc(F)cc3)cc2[nH]1 [flubendazole]
- clonogenic growth [1]: reduced the clonogenic growth
- cell cycle [2]: arrested cells in the G2 phase
- number of multi-nucleated cells [3]: increased the number of multi-nucleated cells
- rank of potency in panel of 8 benzimidazoles [4]: most potent
- tumor growth [5, 8]: significantly delayed tumor growth
- tumor weights [5, 8]: reduced tumor weights
- weight loss, behavioral changes or gross organ toxicity ([5]; mouse, in vivo): no evidence of weight loss, behavioral changes or gross organ toxicity
- estimated half life ([6]; after oral administration): 6.5 h
- fraction of flubendazole absorbed ([6]; oral): 18%
- area under the curve (AUC) ([6]; single dose of 5 mg/kg intravenously, over 36 hours): 22 µM·h
- area under the curve (AUC) [6, 9]: 6530 ng·h/mL
- toxicity [6, 9]: no toxicity was observed
- IC50 [7]: 4.1 ± 1.3 µM
